# Measured values reported in patent US9770026B2, “Substituted pyrimidine compound and uses thereof” (Shenyang Sinochem Agrochemicals R&D Co., Ltd., priority 2012, dated 2017).
# Experiments:
# wheat powdery mildew = experiment: protectant activity in vivo against wheat powdery mildew; conditions: protectant activity; for pest or weed control at 6.25 µg/mL / pest or weed control at 25 µg/mL / pest or weed control at 100 µg/mL / pest or weed control at 400 µg/mL: Triticum aestivum, 168 h; for pest or weed control at 6.25 µg/mL: read-out: control effect against wheat powdery mildew (%), 6.25 mg/L; for pest or weed control at 25 µg/mL: read-out: control effect against wheat powdery mildew (%), 25 mg/L; for pest or weed control at 100 µg/mL: read-out: control effect against wheat powdery mildew (%), 100 mg/L; for pest or weed control at 400 µg/mL: read-out: control effect against wheat powdery mildew (%), 400 mg/L
# [1] = test system: Green peach aphids (Myzus Persicae Sulzer); experiment: bioactivity test against green peach aphid, airbrush foliar spray; assay type: in vivo; conditions: contrastive test
# Method in brief: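 Death rate was scored at 48 hrs, held at 25±1 C and 60±5% RH, following airbrush foliar spray (0.5 mL, 10 psi) onto cabbage leaf discs bearing about 15-30 aphids. Test solutions: compound dissolved in 1:1 acetone:methanol, brought to concentration with 0.1% tween 80 water.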
# Diamond back moth = experiment: insecticidal activity against diamond back moth, airbrush spray; assay type: in vivo; conditions: for pest or weed control at 600 µg/mL: 72 h
# Procedure: (§1) Compounds were dissolved in mixed solvent (acetone:methanol=1:1), and diluted to required concentration with water containing 0.1% of tween 80.
# (§2) Diamond back moth, armyworm, peach aphid and carmine spider mite were used as targets and the method of spraying by airbrush was used for determination of insecticidal biassays.
# (§3) The method of spraying by airbrush: The cabbage leaves were made into plates of 2 cm diameter by use of punch. A test solution (0.5 ml) was sprayed by airbrush at the pressure of 0.7 kg/cm^2 to both sides of every plate. 10 Second instar larvae were put into the petri-dishes after the leaf disc air-dried and 3 replicates were set for each treatment. Then the insects were maintained in observation room (25° C., 60˜70% R.H.). Scores were conducted and mortalities were calculated after 72 hrs.
# cucumber downy mildew = experiment: protectant activity in vivo against cucumber downy mildew; conditions: protectant activity; for pest or weed control at 25 µg/mL: read-out: control effect against cucumber downy mildew (%), 25 mg/L; for pest or weed control at 50 µg/mL: read-out: control effect against cucumber downy mildew (%), 50 mg/L; for pest or weed control at 100 µg/mL: read-out: control effect against cucumber downy mildew (%), 100 mg/L; for pest or weed control at 400 µg/mL: read-out: control effect against cucumber downy mildew (%), 400 mg/L
# corn rust = experiment: protectant activity in vivo against corn rust; conditions: protectant activity; for pest or weed control at 400 µg/mL: read-out: control effect against corn rust (%), 400 mg/L
# armyworm = experiment: bioactivity test against armyworm, airbrush spray; assay type: in vivo; conditions: 600 mg/L; for pest or weed control at 600 µg/mL: 72 h, read-out: Insecticidal activity against armyworm (%)
# Procedure: as §1, §2
# as §3, with “corn” for “cabbage”, “(25 °C,” for “(25° C.,”, “h.” for “hrs.”
# [2] = Myzus persicae, foliar, 48 h, 600 mg/L, read-out: Insecticidal activity against peach aphid (%)
Compound,control effect against wheat powdery mildew (%) (wheat powdery mildew; 400 mg/L),Insecticidal activity against peach aphid (%) ([1]; 10 mg/L),Insecticidal activity against peach aphid (%) ([1]; 100 mg/L),Insecticidal activity against peach aphid (%) ([1]; 600 mg/L),Insecticidal activity against diamond back moth (%) (Diamond back moth; 600 mg/L),control effect against cucumber downy mildew (%) (cucumber downy mildew; 25 mg/L),control effect against cucumber downy mildew (%) (cucumber downy mildew; 50 mg/L),control effect against cucumber downy mildew (%) (cucumber downy mildew; 100 mg/L),control effect against cucumber downy mildew (%) (cucumber downy mildew; 400 mg/L),control effect against corn rust (%) (corn rust; 400 mg/L),Insecticidal activity against armyworm (%) (armyworm),pest or weed control at 6.25 µg/mL (wheat powdery mildew) [%],pest or weed control at 25 µg/mL (wheat powdery mildew) [%],pest or weed control at 100 µg/mL (wheat powdery mildew) [%],pest or weed control at 400 µg/mL (wheat powdery mildew) [%],"pest or weed control at 600 µg/mL [1, 2] [%]",pest or weed control at 600 µg/mL (Diamond back moth; 600 mg/L) [%],"pest or weed control at 400 µg/mL (cucumber downy mildew; Cucumis sativus, 168 h) [%]","pest or weed control at 400 µg/mL (corn rust; Zea mays, 168 h) [%]",pest or weed control at 600 µg/mL (armyworm) [%],also measured
"CCc1ncnc(NC(C)c2ccc(Oc3ccc(F)cc3)nc2)c1Cl (stereo not drawn) [CK9, reference compound]",100,23,79,100,100,70,90,98,100,100,40,,,,,,,,,,control effect against wheat powdery mildew (%) (wheat powdery mildew; 6.25 mg/L): 0%; control effect against wheat powdery mildew (%) (wheat powdery mildew; 25 mg/L): 0%; control effect against wheat powdery mildew (%) (wheat powdery mildew; 100 mg/L): 0%; Insecticidal activity against diamond back moth (%) (Diamond back moth; 10 mg/L): 25%; Insecticidal activity against diamond back moth (%) (Diamond back moth; 100 mg/L): 45%; control effect against corn rust (%) (corn rust; 6.25 mg/L): 0%; control effect against corn rust (%) (corn rust; 25 mg/L): 20%; control effect against corn rust (%) (corn rust; 100 mg/L): 100%
"CCc1ncnc(NC(C)c2ccc(Oc3ccc(C(C)(C)C)cc3)nc2)c1Cl (stereo not drawn) [CK10, reference compound]",50,23,91,100,33,20,40,82,100,50,0,,,,,,,,,,
"Cc1ncnc(NC(C)c2ccc(Oc3nc(Cl)c(Cl)cc3Cl)cc2)c1Cl (stereo not drawn) [CK29, reference compound]",,,,,,,,,,,,40,50,80,100,0,0,98,100,14,"pest or weed control at 25 µg/mL (cucumber downy mildew; Cucumis sativus, 168 h): 25%; pest or weed control at 50 µg/mL (cucumber downy mildew; Cucumis sativus, 168 h): 90%; pest or weed control at 100 µg/mL (cucumber downy mildew; Cucumis sativus, 168 h): 98%; pest or weed control at 6.25 µg/mL (corn rust; Zea mays, 168 h, read-out: control effect against corn rust (%), 6.25 mg/L): 30%; pest or weed control at 25 µg/mL (corn rust; Zea mays, 168 h, read-out: control effect against corn rust (%), 25 mg/L): 85%; pest or weed control at 100 µg/mL (corn rust; Zea mays, 168 h, read-out: control effect against corn rust (%), 100 mg/L): 95%"
"CCc1ncnc(NCc2ccc(Oc3ccc(C(F)(F)F)cn3)cc2)c1Cl [CK42, reference compound]",,,,,,,,,,,,50,60,70,100,100,0,100,70,0,"pest or weed control at 2.5 µg/mL ([1]; Myzus persicae, foliar, 48 h, 2.5 mg/L, read-out: Insecticidal activity against peach aphid (%)): 0%; pest or weed control at 5 µg/mL ([1]; Myzus persicae, foliar, 48 h, 5 mg/L, read-out: Insecticidal activity against peach aphid (%)): 17%; pest or weed control at 10 µg/mL ([1]; Myzus persicae, foliar, 48 h, 10 mg/L, read-out: Insecticidal activity against peach aphid (%)): 20%; pest or weed control at 100 µg/mL ([1]; Myzus persicae, foliar, 48 h, 100 mg/L, read-out: Insecticidal activity against peach aphid (%)): 67%; pest or weed control at 3.125 µg/mL (cucumber downy mildew; Cucumis sativus, 168 h, read-out: control effect against cucumber downy mildew (%), 3.125 mg/L): 0%; pest or weed control at 6.25 µg/mL (cucumber downy mildew; Cucumis sativus, 168 h, read-out: control effect against cucumber downy mildew (%), 6.25 mg/L): 0%; pest or weed control at 12.5 µg/mL (cucumber downy mildew; Cucumis sativus, 168 h, read-out: control effect against cucumber downy mildew (%), 12.5 mg/L): 0%; pest or weed control at 25 µg/mL (cucumber downy mildew; Cucumis sativus, 168 h): 20%; pest or weed control at 50 µg/mL (cucumber downy mildew; Cucumis sativus, 168 h): 100%; pest or weed control at 100 µg/mL (cucumber downy mildew; Cucumis sativus, 168 h): 100%"
"COc1cc(NCCc2ccc(Oc3ncc(C(F)(F)F)cc3Cl)cc2)ncn1 [CK71, reference compound]",,,,,,,,,,,,,,,100,,0,80,0,86,
